From patent US5464834A, “N-substituted N'-heterobicyclic piperazines having pharmaceutical activity” (Adir et Compagnie, priority 1992, dated 1995)

Legend:
Type in all cases: in vivo, rat (male Wistar)
Design in all cases: from tissue; host or cells: whole living male Wistar rats (endogenous receptor)
5HT1A receptors [1] = target: T1, 5HT1A receptors (Rattus norvegicus, UniProt P19327); assay: Flat body posture (FBP), agonist (alone) and antagonist (vs 8-OH-DPAT); settings: for ED50: rat, sc
T1 sequence (P19327 1-422): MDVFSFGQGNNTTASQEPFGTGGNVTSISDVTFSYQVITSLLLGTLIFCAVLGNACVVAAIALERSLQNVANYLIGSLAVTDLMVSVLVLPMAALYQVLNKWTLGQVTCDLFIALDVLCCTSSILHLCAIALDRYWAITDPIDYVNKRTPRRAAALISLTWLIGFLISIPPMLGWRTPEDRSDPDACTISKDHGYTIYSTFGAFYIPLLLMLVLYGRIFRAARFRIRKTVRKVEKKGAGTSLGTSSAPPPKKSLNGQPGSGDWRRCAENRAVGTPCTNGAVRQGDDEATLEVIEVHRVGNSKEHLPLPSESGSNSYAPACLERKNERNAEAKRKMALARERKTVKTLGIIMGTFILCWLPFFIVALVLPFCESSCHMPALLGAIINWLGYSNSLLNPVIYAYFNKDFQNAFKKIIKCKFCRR
Description: (§1) The tests were carried out using male Wistar rats weighing 200 to 220 g having free access to their food and to their drinking water in standard cages.
(§2) The animals are isolated individually for the tests for hypothermia, corticosterone secretion and flat body posture, or combined in groups of three for the tailflick test.
(§3) The compounds to be studied were administered by the subcutaneous route (s.c.) 60 minutes before the beginning of the test, that is to say 30 minutes before the solvent (agonist responses) or the 8-OH-DPAT (antagonist responses).
(§4) In all of the tests the solvent is used in parallel as a control. The animals were left to rest in their cage during the period between the injections and the evaluation. For the agonist studies, the solvent was administered at 1 ml/kg s.c. 30 minutes before the beginning of the test. For the antagonist studies, doses of 8-OH-DPAT that induce sub-maximal responses were chosen, that is doses of 0.63, 0.16, 0.16 and 0.16 mg/kg s.c. for, respectively, the tail flick test, flat body posture test, corticosterone secretion test and hypothermia test.
(§5) The same animals were used to evaluate the influence of the compounds studied on FBP and on the determination of the plasma concentration of CS. All of the tests were carried out in the morning between 10.30 and 12.300 that is to say when the circadian levels of CS are lowest.
25 minutes after the treatment (that is to say 5 minutes before decapitation) the animals are observed in their cages and the presence or absence of FBP is noted.
(§6) The presence of FBP is defined by a characteristic posture of the animal. That posture is in the ventral decubitus position with the posterior limbs clearly extended. 5 minutes after the observation of FBP, the animals are decapitated and the blood from the trunk is collected in cooled tubes containing 50 μl of a 10% EDTA solution. After centrifugation at 4000 revs/min, the plasma is removed and stored at -30° C. until determination.
(§7) In general, after variance analysis, the results are subjected to the Dunett test. The results are taken as significant if p <0.05.
For the dose-response for the induction and inhibition of FBP, the ED50 values (doses at which 50% of the animals show a response) were calculated by the Litchfield and Wilcoxon method.
(§8) The doses of the compounds tested are all expressed in base terms. Unless specified otherwise, all of the compounds were dissolved in sterile water (to which if necessary a few drops of lactic acid were added) and administered at a volume of 1 ml/kg s.c.

5HT1A receptors [2] = target: T1, 5HT1A receptors; assay: Corticosterone secretion (CS), agonist (alone) and antagonist (vs 8-OH-DPAT)
Description: as §1, §2, §3, §4, §5, §6
The CS was determined by a radio-competitive determination for a plasma protein that binds the CS: transcortine. The latter is obtained from a monkey serum. The separation of the CS-transcortine complexes from the free CS was carried out by means of a solution of dextran and active carbon. The detection limit was 50 pg/tube. The intra- and inter-experiment variations in determination were 5 and 15% respectively [cf Rivet J. M. et al, Eur. J. Pharmacol., 183,634-635 (1990)].
The CS base rates in the plasma never being zero, the following formula was used to calculated the percentage inhibition of plasma CS induced by 8-OH-DPAT: [formula]
as §7, §8

5HT1A receptors [3] = target: T1, 5HT1A receptors; assay: Drug discrimination (DD) 8-OH-DPAT; settings: for ED50: rat, sc, rats trained on 8-OH-DPAT 0.31 mg/kg
Description: as §1
Male rats are maintained at 85% of their normal body weight by means of food restriction. In soundproofed chambers the animals are trained to press a pedal to obtain food according to an FR10 procedure (Fixed Ratio 10; the food is supplied to the rat when it has pressed the lever 10 times).
Daily sessions of 15 minutes are preceded by an injection of solvent or of the training drug (0.31 mg/kg of 8-OH-DPAT, j.p.). The animal receives a pellet of food after pressing 10 times on the "solvent" or "drug" pedal according to the compound administered before the session.
After the learning period the animals are tested twice a week (Wednesday and Friday). On the other three days training sessions are carried out.
On the training days the rats are given either solvent or 8-OH-DPAT 15 minutes before being tested.
On the test days the rats receive the chemical substance 60 minutes before the session.
The capacity of the chemical substance administered to induce a response (pressing on the "solvent" or "drug" (8-OH-DPAT ) lever ) is recorded.
7 animals chosen at random are used for each substance and for each dose. During the test period, the lever on which the rat first presses 10 times is determined as the lever chosen--a food pellet is then delivered. That selected lever will be reinforced by the delivery of food up to the end of the test session. The percentage of animals selecting the "drug" lever at a particular dose is calculated. In addition, the total number of responses carried out on the two levers is expressed as a percentage of the number of responses carried out on the "solvent" lever obtained on the occasion of a preceding training session.
as §8

5HT1A receptors [4] = target: T1, 5HT1A receptors; assay: Body temperature / hypothermia, agonist (alone) and antagonist (vs 8-OH-DPAT)
Description: as §1, §2, §3, §4
The rats are immobilised and a lubricated digital thermometer (Termistroprobe of Testotherm, Basle, Switzerland) is inserted into the rectum to a depth of 5 cm. 30 seconds after insertion, the temperature is read on a digital scale. The percentage inhibition is calculated using the formula given above.
as §7, §8

[5] = agonist test, compound alone s.c., minimum effective dose vs control

ED50 (5HT1A receptors [1]; agonist test, compound alone s.c., read-out: FBP ED50 (95% CL) alone): > 10 mg/kg | ED50 (5HT1A receptors [1]; antagonist test, s.c., vs 8-OH-DPAT 0.16 mg/kg s.c., read-out: FBP ID50 (95% CL) + DPAT): 0.48 mg/kg | % MPA (% maximum possible antagonism), FBP (5HT1A receptors [1]; vs 8-OH-DPAT 0.16 mg/kg s.c.): 100% | CS secretion MED alone (5HT1A receptors [2]; [5]): 10.0 mg/kg | ED50 (5HT1A receptors [2]; rat, sc, antagonist test, s.c., vs 8-OH-DPAT 0.16 mg/kg s.c., read-out: CS secretion ID50 (95% CL) + DPAT): 0.43 mg/kg | % MPA (% maximum possible antagonism), CS secretion (5HT1A receptors [2]; vs 8-OH-DPAT 0.16 mg/kg s.c.): 100% | ED50 (5HT1A receptors [3]; antagonist, vs 8-OH-DPAT, read-out: DD 8-OH-DPAT ID50 (95% CL) + DPAT): 0.63 mg/kg | ED50 (5HT1A receptors [3]; compound alone, 60 min before session, read-out: DD 8-OH-DPAT ED50 (95% CL) alone): > 2.5 mg/kg | % MPA (% maximum possible antagonism), DD (5HT1A receptors [3]; vs 8-OH-DPAT): 100% | HYPOTHERMIA MED alone (5HT1A receptors [4]; [5]): 10.0 mg/kg | ED50 (5HT1A receptors [4]; rat, sc, antagonist test, s.c., vs 8-OH-DPAT 0.16 mg/kg s.c., read-out: HYPOTHERMIA ID50 (95% CL) + DPAT): 0.16 mg/kg | % MPA (% maximum possible antagonism), HYPOTHERMIA (5HT1A receptors [4]; vs 8-OH-DPAT 0.16 mg/kg s.c.): 98%
SMILES: c1cc2c(c(N3CCN(CCCc4ccsc4)CC3)c1)OCCO2 [Example 1, 4-(Benzodioxan-5-yl)-1-[3-(thiophen-3-yl)propyl]piperazine]
